The target in one series is T1, human recombinant DPP-IV (Homo sapiens, UniProt P27487).
T1 construct: purchased R&D Systems, USA (or produced in-house)
The series can be described thus: Inhibition of human recombinant DPP-IV (Gly-Pro-AMC hydrolysis, fluorometric). Type of series: biochemical. The following applies: for inhibition at 1 µM: compound 1000 nM, relative to vehicle controls, read-out: % inhibition at 1000 nM; for IC50: human recombinant DPP-IV, 50 μM Gly-Pro-AMC, 30 min at 30° C. In short, it runs like this:
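Enzyme (10 ng) was preincubated 15 min at 30° C. with compound (10 and 100 nM screen; 8 concentrations 0.1-1000 nM) in Tris-HCl pH 7.4, NaCl, KCl, BSA. 50 μM Gly-Pro-AMC was added for 30 min at 30° C. and AMC fluorescence was read (ex 360/em 460 nm). Results are given as % inhibition versus vehicle or as IC50.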

In a further series the target is T2, plasma DPP-IV (Rattus norvegicus, UniProt P14740).
T2 construct: from tissue; host or cells: EDTA-plasma of male Wistar rats dosed orally
The series can be described thus: Measurement of plasma DPP-IV activity in male Wistar rats after single oral dose. Type of series: in vivo. The following applies: p.o.; for inhibition at 3 mg/kg / inhibition at 10 mg/kg: rat, po; for inhibition at 3 mg/kg / Plasma DPP-IV Inhibition (%) 4 h / Plasma DPP-IV Inhibition (%) 6 h / Plasma DPP-IV Inhibition (%) 8 h: 3 mg/kg. As to the method: Overnight-fasted male animals were administered either vehicle or single oral doses of compounds. Blood samples were withdrawn from retro-bulbar venous plexus under anesthesia at several time points up to 24 h post-dose. EDTA-plasma was separated and DPP-IV activity was measured using a fluorometric assay. Assays were carried out in 96-well flat-bottom black microwell plates. A typical reaction contained 25 μl plasma, 50 μl of 50 μM substrate (Gly-Pro-AMC) and 25 μl assay buffer (25 mM Tris-HCl, pH 7.4, 140 mM NaCl, 10 mM KCl and 1% BSA) in a total reaction volume of 100 μl. Plasma samples were incubated with the substrate for 30 min at 30° C., following which the fluorescence was measured in a microplate fluorescence redaer (POLARstar Galaxy), with excitation and emission wavelengths set at 360 nm and 460 nm, respectively. Percent inhibition in plasma DPP-IV activity due to compounds was calculated by comparing with plasma from vehicle-treated animals.

The subject of the next series is C57BL/6J mice. The series can be described thus: Oral glucose tolerance test in male C57BL/6J mice. The note with it: 3 mg/kg, p.o., oral glucose load 5 g/kg 1 h after compound, glucose AUC 0-120 min vs vehicle. Type of series: in vivo. As to the method:
B. Oral Glucose Tolerance Test in Male C57BU6J Mice
Overnight-fasted male […] mice were challenged 1 h, 4 h and 8 h after either vehicle or compound administration with an oral glucose load of 5 g/kg in three different groups of animals. Blood samples for glucose measurement were obtained by tail bleed at predose, before glucose load and at serial time points after the glucose load, to evaluate the efficacy and duration of effect on glucose tolerance test. […] Improvement in glucose tolerance in compound-treated animals was estimated by comparing with vehicle-treated animals.
Table 3 provides data for the antihyperglycemic activity of selected compounds in C57BL/6J mice, as determined by oral glucose tolerance test.

The mark [1] stands for this setting: 4 h post-dose, read-out: Plasma DPP-IV Inhibition (%) 4 h.
[2] abbreviates: 6 h post-dose, read-out: Plasma DPP-IV Inhibition (%) 6 h.
[3] abbreviates: 8 h post-dose, read-out: Plasma DPP-IV Inhibition (%) 8 h.

This note sets out measurements from patent US8338450B2, “Compounds as dipeptidyl peptidase IV (DPP IV) inhibitors” (Lupin Limited, priority 2007, dated 2012).

Where a name gives a salt, the structure may show the parent alone. Read-outs that look alike come from different tables or passages of the source.

T1 sequence (P27487 whole entry): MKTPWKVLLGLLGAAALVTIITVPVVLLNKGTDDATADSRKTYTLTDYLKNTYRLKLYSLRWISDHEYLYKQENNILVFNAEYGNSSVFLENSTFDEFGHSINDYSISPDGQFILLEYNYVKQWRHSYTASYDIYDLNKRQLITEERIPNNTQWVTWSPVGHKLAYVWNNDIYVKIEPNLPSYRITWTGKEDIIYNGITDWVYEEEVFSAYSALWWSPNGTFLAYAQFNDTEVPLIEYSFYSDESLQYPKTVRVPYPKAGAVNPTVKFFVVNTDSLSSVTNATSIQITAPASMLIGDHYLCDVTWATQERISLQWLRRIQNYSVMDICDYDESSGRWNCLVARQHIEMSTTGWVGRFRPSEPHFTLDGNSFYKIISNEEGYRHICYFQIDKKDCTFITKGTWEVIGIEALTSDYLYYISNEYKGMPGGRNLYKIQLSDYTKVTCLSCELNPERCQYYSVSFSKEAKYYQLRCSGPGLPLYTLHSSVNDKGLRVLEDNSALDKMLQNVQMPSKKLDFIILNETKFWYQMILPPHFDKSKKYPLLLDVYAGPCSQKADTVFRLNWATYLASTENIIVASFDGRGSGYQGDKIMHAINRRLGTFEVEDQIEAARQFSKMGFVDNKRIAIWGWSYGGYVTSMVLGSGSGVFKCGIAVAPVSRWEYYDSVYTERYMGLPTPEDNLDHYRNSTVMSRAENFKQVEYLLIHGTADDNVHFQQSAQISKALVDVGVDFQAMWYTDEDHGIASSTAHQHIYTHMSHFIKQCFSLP
T2 sequence (P14740 37-767 limits assumed): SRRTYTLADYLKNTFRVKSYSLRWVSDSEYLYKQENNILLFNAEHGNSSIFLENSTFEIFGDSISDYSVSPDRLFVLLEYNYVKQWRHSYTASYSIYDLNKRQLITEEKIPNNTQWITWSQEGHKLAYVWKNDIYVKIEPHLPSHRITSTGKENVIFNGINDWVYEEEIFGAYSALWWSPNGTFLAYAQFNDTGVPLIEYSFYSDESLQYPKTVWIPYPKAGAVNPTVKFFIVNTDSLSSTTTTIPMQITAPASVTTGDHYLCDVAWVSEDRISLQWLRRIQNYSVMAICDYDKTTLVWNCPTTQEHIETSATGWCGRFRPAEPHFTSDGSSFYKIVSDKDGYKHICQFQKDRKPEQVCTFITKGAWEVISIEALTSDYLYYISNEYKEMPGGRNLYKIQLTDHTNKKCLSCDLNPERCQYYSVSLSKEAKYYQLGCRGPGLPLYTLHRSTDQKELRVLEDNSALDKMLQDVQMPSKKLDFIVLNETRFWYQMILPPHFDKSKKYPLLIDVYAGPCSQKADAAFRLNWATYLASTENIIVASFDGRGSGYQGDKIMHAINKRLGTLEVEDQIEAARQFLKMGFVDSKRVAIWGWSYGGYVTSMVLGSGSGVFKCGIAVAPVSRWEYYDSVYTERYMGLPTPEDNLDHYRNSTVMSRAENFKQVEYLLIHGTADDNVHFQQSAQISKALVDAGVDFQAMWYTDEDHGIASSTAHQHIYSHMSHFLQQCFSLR

With `C#C[C@H]1CC[C@@H](C#N)N1C(=O)[C@@H](N)C1CC2CCC(C1)N2C(=O)c1ccc(C(F)(F)F)cc1` (stereo partly drawn) (as salt: salt) [Compound 63, (2S,5R)-1-{(2S)-2-Amino-2-[8-(4-trifluoromethyl-benzoyl)-8-aza-bicyclo[3.2.1]oct-3-yl]-exo-ethanoyl}-5-ethynyl-pyrrolidin-2-carbonitrile trifluoro acetic acid salt], the melting point is 160 to 163 °C.
Same read-out and setting: in the case of `C#C[C@H]1CC[C@@H](C#N)N1C(=O)[C@@H](N)C1CC2CCC(C1)N2C(=O)c1ccnc(F)c1` (stereo partly drawn) (as salt: salt) [Compound 66, (2S,5R)-1-{(2S)-2-Amino-2-[8-(2-fluoropyridin-4-carbonyl)-8-aza-bicyclo[3.2.1]-oct-3-yl]-exo-ethanoyl}-5-ethynyl-pyrrolidin-2-carbonitrile trifluoro acetic acid salt] it was 199 to 200 °C; in that of `N[C@H](C(=O)N1CCC[C@H]1C(=O)O)C1CC2CCC(C1)N2C(=O)c1ccc(C(F)(F)F)cc1` (stereo partly drawn) (as salt: trifluoroacetic acid salt) [Compound 11, (2S)-1-{(2S)-2-amino-2-[8-(4-trifluoromethyl-benzoyl)-8-aza-bicyclo[3.2.1]-oct-3-yl]-exo-ethanoyl}-pyrrolidin-2-carboxylic acid trifluoroacetic acid salt], 161 to 163 °C; in that of `N[C@H](C(=O)N1CCSC1)C1CC2CCC(C1)N2C(=O)c1ccc(C(F)(F)F)cc1` (stereo partly drawn) (as salt: trifluoroacetic acid salt) [Compound 21, 3-{(2S)-2-Amino-2-[8-(4-trifluoromethyl-benzoyl)-8-aza-bicyclo[3.2.1]-oct-3-yl]-exo-ethanoyl}-1,3-thiazolidin trifluoroacetic acid salt], 123 to 125 °C.
Same read-out and setting: the same measure for `N[C@H](C(=O)N1CC(F)C1)C1CC2CCC(C1)N2C(=O)c1ccncc1F` (stereo partly drawn) (as salt: trifluoroacetic acid salt) [Compound 62, {(2S)-2-Amino-2-[8-(3-fluoropyridine-4-carbonyl)-8-aza-bicyclo[3.2.1]-oct-3-yl]-exo-ethanoyl}-3-fluoroazetidine trifluoroacetic acid salt]: 90 to 93 °C.
With `COC(=O)[C@@H]1CCCN1C(=O)[C@@H](N)C1CC2CCC(C1)N2C(=O)c1ccc(C(F)(F)F)cc1` (stereo partly drawn) [Compound 10, Methyl (2S)-1-{(2S)-2-amino-2-[8-(4-trifluoromethyl-benzoyl)-8-aza-bicyclo[3.2.1]oct-3-yl]-exo-ethanoyl}-pyrrolidin-2-carboxylate trifluoro acetic acid], the melting point lay in the range of 173 to 175 °C. In addition, the inhibition at 1 µM on human recombinant DPP-IV stood at 41%.
The compound `Cl.N[C@H](C(=O)N1CCC[C@H]1c1nn[nH]n1)C1CC2CCC(C1)N2C(=O)c1ccc(C(F)(F)F)cc1` (stereo partly drawn) [Compound 13, (2S)-1-{(2S)-2-Amino-2-[8-(4-trifluoromethyl-benzoyl)-8-aza-bicyclo[3.2.1]oct-3-yl]-exo-ethanoyl}-2-(2H-tetrazol-5-yl)pyrrolidine hydrochloride] came in with a melting point of 244 to 246 °C. Besides, at human recombinant DPP-IV, the inhibition at 1 µM was 21%.
For `Cl.N#C[C@@H]1C[C@H](F)CN1C(=O)[C@@H](N)C1CC2CCC(C1)N2C(=O)c1ccc(C(F)(F)F)cc1` (stereo partly drawn) [Compound 15, (2S,4S)-1-{(2S)-2-Amino-2-[8-(4-trifluoromethyl-benzoyl)-8-aza-bicyclo[3.2.1]oct-3-yl]-exo-ethanoyl}-4-fluoro-pyrrolidine-2-carbonitrile hydrochloride salt], the melting point was 168 to 170 °C. The IC50 at human recombinant DPP-IV was 1.72 nM.
Take `N#C[C@@H]1C[C@@H]2C[C@@H]2N1C(=O)[C@@H](N)C1CC2CCC(C1)N2C(=O)c1ccnc(F)c1` (stereo partly drawn) [Compound 28, (1S,3S,5S)-2-{(2S)-2-amino-2-[8-(2-fluoropyridine-4-carbonyl)-8-aza-bicyclo[3.2.1]-oct-3-yl]-exo-ethanoyl}-2-azabicyclo[3.1.0]-hexane-3-carbonitrile trifluoro acetic acid salt]: the IC50 on human recombinant DPP-IV turned out to be 4.7 nM. Moreover, the inhibition at 3 mg/kg on plasma DPP-IV (setting [1]) amounted to 51%; at plasma DPP-IV (setting [2]), 35%; on plasma DPP-IV (setting [3]) it was 28%. The figures for the inhibition at 10 mg/kg on plasma DPP-IV (setting [1]), at plasma DPP-IV (setting [2]) and on plasma DPP-IV (setting [3]) were 77%, 65% and 53%, respectively. Besides, the “Improvement in Glucose Tolerance (%) 1 h” value with C57BL/6J mice was determined as 54%.
Turning to `N#C[C@@H]1C[C@@H]2C[C@@H]2N1C(=O)[C@@H](N)C1CC2CCC(C1)N2C(=O)c1cnccn1.O=C(O)C(F)(F)F` (stereo partly drawn) [Compound 35, (1S,3S,5S)-2-{(2S)-2-Amino-2-[8-(pyrazine-2-carbonyl)-8-aza-bicyclo[3.2.1]oct-3-yl]-exo-ethanoyl}-2-azabicyclo[3.1.0]hexane-3-carbonitrile trifluoroacetic acid salt], at human recombinant DPP-IV, the IC50 came out at 4.2 nM. In addition, the “Plasma DPP-IV Inhibition (%) 4 h” value at plasma DPP-IV (4 h post-dose) came to 54%. Also, at plasma DPP-IV (6 h post-dose), the “Plasma DPP-IV Inhibition (%) 6 h” value is 42%. At plasma DPP-IV (8 h post-dose), the “Plasma DPP-IV Inhibition (%) 8 h” value turned out to be 33%. In addition, in the series on C57BL/6J mice, the “Improvement in Glucose Tolerance (%) 1 h” value was determined as 46%.
Turning to `C#C[C@H]1CC[C@@H](C#N)N1C(=O)[C@@H](N)C1CC2CCC(C1)N2C(=O)c1ccnc(F)c1` (stereo partly drawn) [Compound 66, (2S,5R)-1-{(2S)-2-Amino-2-[8-(2-fluoropyridin-4-carbonyl)-8-aza-bicyclo[3.2.1]-oct-3-yl]-exo-ethanoyl}-5-ethynyl-pyrrolidin-2-carbonitrile trifluoro acetic acid salt], at human recombinant DPP-IV, the IC50 came out at 8.24 nM. Also, the inhibition at 3 mg/kg on plasma DPP-IV (setting [1]) worked out at 56%; at plasma DPP-IV (setting [2]), 38%; on plasma DPP-IV (setting [3]), 38%. In addition, the “Improvement in Glucose Tolerance (%) 1 h” value in the series with C57BL/6J mice is given as 48%.
Take `C#C[C@H]1CC[C@@H](C#N)N1C(=O)[C@@H](N)C1CC2CCC(C1)N2C(=O)c1ccc2c(c1)OCO2.O=C(O)C(F)(F)F` (stereo partly drawn) [Compound 67, (2S,5R)-1-{(2S)-2-Amino-2-[8-(benzo[1,3]dioxole-5-carbonyl)-8-aza-bicyclo[3.2.1]oct-3-yl]-exo-ethanoyl}-5-ethynyl-pyrrolidin-2-carbonitrile trifluoroacetic acid salt]: the IC50 at human recombinant DPP-IV came to 7.68 nM. For the same compound, at plasma DPP-IV (4 h post-dose), the “Plasma DPP-IV Inhibition (%) 4 h” value came to 64%. Also, on plasma DPP-IV (6 h post-dose), the “Plasma DPP-IV Inhibition (%) 6 h” value is 36%. The “Plasma DPP-IV Inhibition (%) 8 h” value at plasma DPP-IV (8 h post-dose) was 23%. Also, the “Improvement in Glucose Tolerance (%) 1 h” value in the series with C57BL/6J mice is 50%.
